Test results as given in patent publication US20230398092A1, “APPLICATION OF SESQUITERPENE LACTONE COMPOUND IN PREPARATION OF DRUGS FOR ALLEVIATING RADIOTHERAPY-INDUCED INJURIES” (ACCENDATECH CO., LTD., priority 2020, published 2023).
Read-outs that look alike come from different tables or passages of the source.

What was measured:
BALB/c mice [1] = assay: Effect of ACT001 on radiation-induced neuronal apoptosis of mice (Tunel staining of whole brain); assay type: in vivo; conditions: ACT001 200 mg/kg intragastrically + brain radiation 2 Gy × 4 or single 4 Gy, day 14, Tunel staining, FIG. 7
From the text: (§1) 2.3 Experimental Animal and Feeding Conditions • Adult BALB/c mice, 18-19 g, 8 weeks, female, SPF (Beijing) Biotechnology Co., Ltd., animal certificate number: SCXK (Beijing) 2019-0010. The test animals were bred in the barrier environment of the experimental animal center of the Institute of Radiation Medicine, Chinese Academy of Medical Sciences, with 5 animals in each cage. The padding was autoclaved special padding for mice, and the mice were fed with special sterilized feed, and were free to drink purified water. In the animal laboratory, the temperature was kept at about 25° C., the relative humidity was kept at 40%-70%, and the illumination was provided for 12 h daily. 3. Experimental procedures and compound treatment
3.1 Administration Method • ACT001 (dissolved in sterile normal saline) was administered intragastrically once daily; an equal volume of sterile normal saline was administered to the model control group; • The compound for each group was prepared freshly prior to use.
3.2 Experimental Grouping • (1) Model control group • (2) Radiotherapy control group (4 Gy) • (3) ACT001-200 mg/kg group • (4) ACT001-200 mg/kg+4 Gy group • (5) Radiotherapy low-dose control group (2 Gy) • (6) ACT001-200 mg/kg+2 Gy group • 10 animals in each group, 60 animals in total.
The mice were randomly grouped, with 10 mice in each group. […]

[2] = system: BEAS2B human normal lung epithelial cell strain; assay: Selective radiotherapy protection effect on normal cells (CCK-8), normal lung epithelial cells; assay type: cell-based; conditions: ACT001 10 μM, 0-6 Gy, radiation 1 h after dosing, 48 h, FIG. 5
Description: (§2) The culture medium for H226 and BEAS2B cells was DMEM, and the cells were cultured in a cell incubator at 37° C. with 5% CO2.
(§3) Recover of H226 and BEAS2B cells: a cryopreservation tube was taken from liquid nitrogen, placed in water bath at 37° C. to thaw the cryopreservation solution, and centrifuged at 1000 rpm for 5 min.
(§4) The supernatant was discarded, and the cells were resuspended in a complete culture medium and cultured under the condition of 37° C., 5% CO2.
(§5) When 70-80% of the bottom of the culture dish was covered by the cells, the culture medium was discarded. The cells were washed with 2-3 mL of PBS buffer and digested with 1 mL of 0.25% pancreatin (just enough to cover the bottom of the flask). Immediately after the cell became round after being cultured in the incubator for a period of time, a complete culture medium was added to stop the digestion, and the cell suspensions after the digestion were combined and centrifuged at 1000 rpm for 5 min. The supernatant was discarded, and the cells were resuspended in a complete culture medium, gently pipetted, and counted. […]
(§6) Dosing was performed 24 h after the cells were seeded. […] 10 μL of CCK-8 solution (taking care not to create air bubbles in the wells, which would affect the OD readings) was added to each well, and the plate was incubated in the incubator for 1-4 h. The OD value at 450 nm was determined with a microplate reader.

[3] = system: SYSY human neuroblastoma cell strain; assay: Alleviation of radiation-induced neuronal cell death (CCK-8); assay type: cell-based; conditions: ACT001 1.25-10 μM, 0-10 Gy, radiation 1 h after dosing, 48 h, FIG. 6
Description: The culture medium for SYSY cells was DMEM, and the cells were cultured in a cell incubator at 37° C. with 5% CO2.
(§7) Recover of SYSY cells: a cryopreservation tube was taken from liquid nitrogen, placed in water bath at 37° C. to thaw the cryopreservation solution, and centrifuged at 1000 rpm for 5 min. The supernatant was discarded, and the cells were resuspended in a complete culture medium and cultured under the condition of 37° C., 5% CO2.
as §5, §6

[4] = system: H226 human squamous lung carcinoma cell strain; assay: Selective radiotherapy protection effect (CCK-8), lung cancer cells; assay type: cell-based; conditions: ACT001 10 μM, 0-6 Gy, radiation 1 h after dosing, 48 h, FIG. 5
Description: as §2, §3, §4, §5, §6

BALB/c mice [5] = assay: Effect of ACT001 on survival of mice subjected to radiotherapy; assay type: in vivo
From the text: as §1, with “Adult” for “2.3 Experimental Animal and Feeding Conditions • Adult”, “2016-0002.” for “2019-0010.”, “common” for “barrier”, “daily.” for “daily. 3. Experimental procedures and compound treatment”
In a preliminary experiment of radiation dose exploration, mice were subjected to radiation at 8 Gy, 10 Gy, 12 Gy, and 14 Gy, respectively. All animals died 18 days after the radiation. However, the animals in the 8 Gy group survived longer than the other groups, so the radiation dose of 8 Gy was selected for the formal experiment.
3.1 Experimental Procedures • (1) The lethal dose of a single radiation of mice was determined through a preliminary experiment; (2) the mice were randomly grouped by the body weight; • (3) ACT001 was pre-administered for 17 consecutive days, and the state of the animals was observed and the body weight was measured daily; • (4) the mice in groups (3) and (4) were subjected to radiation at a lethal dose after 17 days of the administration, and on the day of radiation, ACT001 was administered 1 h before the radiation; • (5) ACT001 was continuously administered for five weeks after the radiation, and the survival state of the animals was observed and the body weight was measured daily. The survival rate and survival time of mice in each group were calculated.
3.2 Grouping Regimen • (1) Blank control group • (2) ACT001-200 mg/kg group • (3) Radiotherapy-8 Gy group • (4) ACT001-200 mg/kg+radiotherapy-8 Gy group
A total of 4 groups were set in the experiment, with 10 animals in each group.
3.3 Administration Method • ACT001 (dissolved in normal saline) was administered intragastrically once daily, with an interruption once a week; • an equal volume of normal saline was administered intragastrically to the blank control group.
Data were expressed as x±s; statistical analysis among groups was performed using the t-test program in EXCEL software, and the logrank chi-square test method was used to evaluate whether there was statistical significance in each group of dead animals.

[6] = system: U118-MG human brain astroblastoma cell strain; assay: Anti-proliferation activity of ACT001 at different radiation doses (CCK-8); assay type: cell-based; conditions: ACT001 20 μM; for inhibition at 20 µM: Homo sapiens, U-118-MG, U118-MG cells, read-out: Inhibition rate (%) at different radiation doses
Description: The culture medium for U118-MG was DMEM, and the cells were cultured in a cell incubator at 37° C. with 5% CO2.
as §7, with “U118-MG” for “SYSY”
When 70-80% of the bottom of the culture flask was covered by the cells, the culture medium was discarded by pipetting. The cells were washed with 2-3 mL of PBS buffer and digested with 1-2 mL of 0.25% pancreatin (just enough to cover the bottom of the flask). Immediately after the cell became round after being cultured in the incubator for a period of time, a complete culture medium was added to stop the digestion, and the cell suspensions after the digestion were combined and centrifuged at 1000 rpm for 5 min. The supernatant was discarded, and the cells were resuspended in a complete culture medium, gently pipetted, and counted. The cell density was adjusted to 2500 cells/well, and the cells were seeded into a 96-well plate at 90 μL/well.
Dosing was performed one day after the cells were seeded. Each plate was divided into a blank group, a negative control group and 10 compound groups, with 4-6 duplicate wells set for each group. 10 μL of the compound was added to each well. 3 h later, each well received a corresponding radiation dose. The cells were cultured at 37° C. for 24 h. After that, the culture medium was discarded, a corresponding fresh culture medium was added, and the plate was incubated for 48 h. At the end of incubation, 10 μL of CCK-8 solution (taking care not to create air bubbles in the wells, which would affect the OD readings) was added to each well, and the plate was incubated in the incubator for 1-4 h. The OD value at 450 nm was determined with a microplate reader.
The data were processed with an EXCEL software to solve inhibition rates at different concentrations, and IC50 values were obtained by fitting with SPSS. The mean and standard deviation of the IC50 values obtained three times were solved by SPSS.
Inhibition rate %={1−(OD value of compound well−OD value of blank well)/(OD value of control well−OD value of blank well)}×100%

Q: With `CC1=C2CC[C@@](C)(O)[C@@H]2[C@H]2OC(=O)[C@@H](CN(C)C)[C@@H]2CC1.O=C(O)/C=C/C(=O)O` [ACT001, (3R,3aS,9R,9aS,9bS)-3-((dimethylamino)methyl)-9-hydroxy-6,9-dimethyl-3,3a,4,5,7,8,9,9a-octahydroazuleno[4,5]furan-2(9bH)-one fumarate] as the molecule, how does the “Apoptosis of neurons in the cerebral cortex compared with radiation-only groups” value (BALB/c mice [1]) read?
A: The value was “significantly reduce the apoptosis of neurons”.

Q: What about the “Effect on radiotherapy-induced injuries of BEAS2B cells” value [2] of the same molecule?
A: The value was “significantly reduce radiotherapy-induced injuries of BEAS2B cells”.

Q: What about the “Effect on injuries of SYSY cells caused by radiation” value [3] of the same molecule?
A: The value was “significantly reduce the injuries of SYSY cells caused by radiation”.

Q: What about the “Protection effect on H226 tumor cells against radiation” value [4] of the same molecule?
A: Its value is “no protection effect on H226 tumor cells”.

Q: What about the “Day on which animal death occurred” value (BALB/c mice [5]; ACT001 200 mg/kg + radiotherapy 8 Gy group) of the same molecule?
A: Its value is 15 days.

Q: And the “Survival time compared with the radiotherapy control-8 Gy group” value (BALB/c mice [5]; ACT001 200 mg/kg + radiotherapy 8 Gy, P<0.01)?
A: Its value is “significantly prolonged”.

Q: And the “State and body weight of animals during pre-administration” value (BALB/c mice [5]; ACT001 200 mg/kg intragastrically, 17 consecutive days before radiotherapy)?
A: The value was “in good state with stable body weight”.

Q: What about the “Survival rate (%)” value (BALB/c mice [5]; ACT001 200 mg/kg p.o. × 49 + systemic radiotherapy 8 Gy × 1, BALB/c mice) of the same molecule?
A: The value was 70%.

Q: And the “Body weight (g) End” value (BALB/c mice [5]; ACT001 200 mg/kg p.o. × 49 + systemic radiotherapy 8 Gy × 1, x ± s)?
A: The value was 18.5 ± 2.9 g.

Q: What about the “Survival rate (%)” value (BALB/c mice [5]; ACT001 200 mg/kg p.o. × 49, no radiotherapy, BALB/c mice) of the same molecule?
A: Its value is 100%.

Q: And the “Body weight (g) End” value (BALB/c mice [5]; ACT001 200 mg/kg p.o. × 49, no radiotherapy, x ± s)?
A: The value was 19.1 ± 3.0 g.

Q: And the “Effect on the inhibition by radiation of the proliferation of U118-MG cells” value ([6]; FIG. 1)?
A: Its value is “significantly enhance the inhibition effect of the radiation group”.

Q: And the inhibition at 20 µM ([6]; 0 Gy)?
A: The inhibition at 20 µM was 19.2%.

Q: And the inhibition at 20 µM ([6]; 6 Gy)?
A: Its inhibition at 20 µM is 22.8%.

Q: And the inhibition at 20 µM ([6]; 10 Gy)?
A: Its inhibition at 20 µM is 33.8%.

Q: And the inhibition at 20 µM ([6]; 20 Gy)?
A: The inhibition at 20 µM was 36.1%.

Q: And the inhibition at 20 µM ([6]; 50 Gy)?
A: Its inhibition at 20 µM is 75.6%.
